The values that follow come from ChEMBL document CHEMBL2086352, “Thiazoline peptides and a tris-phenethyl urea from Didemnum molle with anti-HIV activity” (J Nat Prod, 2012).

Active and inactive are the calls of the source. The calls are words filed in the database; no cut-off is given here. Starred links: 1 amine or outer side, 2 acyl side, 3 side chain; linkers in the order of their positions; H or OH if unused. Non-standard residues stand in square brackets, D forms with d. Residues, ends and D or L forms follow the SMILES beside them. *: point of attachment. X1 = O=C([C@H]1CSC([C@@H](Cc2ccccc2)N[*:1])=N1)[*:2]; Allyl(1,1-Me2) = C=CC(C)(C)*

Assay [1] concerns Human immunodeficiency virus. The assay is described as follows: Antiviral activity against HIV infected in 1A2 cells assessed as cytoprotective activity after 96 hrs by MTT assay. It counts as functional, organism-based. The following applies: Human immunodeficiency virus 1, 1A2, 96 h.
Assay [2] deals with Human immunodeficiency virus type 1 integrase (Human immunodeficiency virus 1, UniProt Q7ZJM1). The assay is described as follows: Inhibition of HIV-1 integrase by colorimetry.
In assay [3] the target is Human immunodeficiency virus type 1 integrase (Human immunodeficiency virus 1) (UniProt Q7ZJM1). Briefly: Inhibition of HIV-1 integrase at 100 ug/ml by colorimetry.
The subject of assay [4] is Human immunodeficiency virus. Briefly: Antiviral activity against HIV infected in 1A2 cells assessed as cytoprotective activity at 78 uM after 96 hrs by MTT assay. Type of assay: functional, organism-based. In general terms: Tetrazolium assays rely on reduction of a dye to a coloured formazan, in cell work by metabolically active cells.

Human immunodeficiency virus type 1 integrase, sequence (Q7ZJM1 whole entry): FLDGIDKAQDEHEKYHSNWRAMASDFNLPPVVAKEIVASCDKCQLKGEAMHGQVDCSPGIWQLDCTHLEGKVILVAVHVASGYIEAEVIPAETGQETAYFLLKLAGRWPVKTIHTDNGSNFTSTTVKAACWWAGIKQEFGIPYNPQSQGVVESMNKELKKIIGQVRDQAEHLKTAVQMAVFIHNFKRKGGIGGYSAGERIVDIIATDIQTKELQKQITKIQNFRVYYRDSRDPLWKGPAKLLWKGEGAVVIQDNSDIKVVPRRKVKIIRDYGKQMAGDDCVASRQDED
Human immunodeficiency virus type 1 integrase (Human immunodeficiency virus 1), sequence (Q7ZJM1 as listed by the source): as the sequence (Q7ZJM1 whole entry) above

For the molecule `CC[C@H](C)[C@@H]1NC(=O)[C@H]2CSC(=N2)[C@@H](Cc2ccccc2)NC(=O)[C@@H]2CCCN2C(=O)[C@@H]2CCCN2C(=O)[C@H](C(C)C)NC1=O` [MOLLAMIDE F] (cyclo(IVPP[X1])), the figures for the IC50 in assay [1] and in assay [2] were 78 µM and 39 µM, respectively.

Consider `O=C(NCCc1ccccc1)NCCc1ccccc1C(=O)NCCc1ccccc1` [MOLLEUREA A], for which the IC50 in assay [1] worked out at 60 µM. The inhibition result in assay [3] is “inactive”. `[N-]=[N+]=[N-]` [SODIUM AZIDE] showed an IC50 in assay [2] of 46000 µM. For `C=CC(C)(C)O[C@H](C)[C@@H]1NC(=O)[C@H]2CSC(=N2)[C@@H](Cc2ccccc2)NC(=O)[C@@H]2CCCN2C(=O)[C@H](CO)NC(=O)[C@H](CC(C)C)NC1=O` (cyclo(LSP[X1]T(Allyl(1,1-Me2)))), the result in assay [4] was inactive. In assay [3], the inhibition entry is “inactive”.

The IC50 is the concentration that inhibits the measured activity by half.
